Experimental data: the NIST ThermoML archive (doi:10.1016/j.tca.2018.11.018)
± gives the expanded uncertainty stated by the source.

Assay: xn = mol fraction of the nth substance listed
Conditions: 100 kPa, Liquid; for viscosity: Falling or rolling sphere viscometry; for mass density: Vibrating tube method

CCCC[N+](CC)(CC)CC.[Br-] [butyltriethyl ammonium bromide] + O
Conditions	mass density [kg/m3]	viscosity [mPa·s]
298.15 K, x1 = 0.02	1030.2 ± 1	1.581 ± 0.096
298.15 K, x1 = 0.04	1057.3 ± 1	2.599 ± 0.16
298.15 K, x1 = 0.06	1078.8 ± 1	4.044 ± 0.24
298.15 K, x1 = 0.08	1095.3 ± 1	5.87 ± 0.35
298.15 K, x1 = 0.105	1111 ± 1	10.02 ± 0.61
298.15 K, x1 = 0.13	1122.8 ± 1.1	14.11 ± 0.85
298.15 K, x1 = 0.16	1133.5 ± 1.1	21.36 ± 1.3
298.15 K, x1 = 0.189	1140.9 ± 1.1	30.66 ± 1.9
298.15 K, x1 = 0.22	1147.3 ± 1.1	43.63 ± 2.6
298.15 K, x1 = 0.253	1152.5 ± 1.2	63.73 ± 3.9
303.15 K, x1 = 0.02	1028.2 ± 1	1.381 ± 0.083
303.15 K, x1 = 0.04	1054.7 ± 1	2.216 ± 0.13
303.15 K, x1 = 0.06	1075.6 ± 1	3.393 ± 0.2
303.15 K, x1 = 0.08	1091.9 ± 1	4.835 ± 0.29
303.15 K, x1 = 0.105	1107.4 ± 1	8.222 ± 0.5
303.15 K, x1 = 0.13	1119.1 ± 1.1	11.45 ± 0.69
303.15 K, x1 = 0.16	1129.8 ± 1.1	16.85 ± 1
303.15 K, x1 = 0.189	1137.3 ± 1.1	23.62 ± 1.4
303.15 K, x1 = 0.22	1143.7 ± 1.1	33 ± 2
303.15 K, x1 = 0.253	1148.9 ± 1.2	47.05 ± 2.9
308.15 K, x1 = 0.02	1026 ± 1	1.223 ± 0.074
308.15 K, x1 = 0.04	1051.9 ± 1	1.921 ± 0.12
308.15 K, x1 = 0.06	1072.5 ± 1	2.885 ± 0.17
308.15 K, x1 = 0.08	1088.4 ± 1	4.054 ± 0.24
308.15 K, x1 = 0.105	1103.8 ± 1	6.767 ± 0.41
308.15 K, x1 = 0.13	1115.4 ± 1	9.328 ± 0.56
308.15 K, x1 = 0.16	1126.1 ± 1.1	13.49 ± 0.82
308.15 K, x1 = 0.189	1133.6 ± 1.1	18.55 ± 1.1
308.15 K, x1 = 0.22	1140.1 ± 1.1	25.39 ± 1.5
308.15 K, x1 = 0.253	1145.4 ± 1.2	35.52 ± 2.2
313.15 K, x1 = 0.02	1023.6 ± 1	1.091 ± 0.066
313.15 K, x1 = 0.04	1049.1 ± 1	1.682 ± 0.1
313.15 K, x1 = 0.06	1069.2 ± 1	2.488 ± 0.15
313.15 K, x1 = 0.08	1084.9 ± 1	3.441 ± 0.21
313.15 K, x1 = 0.105	1100.2 ± 1	5.583 ± 0.34
313.15 K, x1 = 0.13	1111.7 ± 1	7.649 ± 0.46
313.15 K, x1 = 0.16	1122.4 ± 1.1	10.91 ± 0.66
313.15 K, x1 = 0.189	1129.9 ± 1.1	14.79 ± 0.9
313.15 K, x1 = 0.22	1136.5 ± 1.1	19.92 ± 1.2
313.15 K, x1 = 0.253	1141.9 ± 1.2	27.22 ± 1.7
318.15 K, x1 = 0.02	1021 ± 1	0.981 ± 0.059
318.15 K, x1 = 0.04	1046.1 ± 1	1.485 ± 0.09
318.15 K, x1 = 0.06	1065.9 ± 1	2.164 ± 0.13
318.15 K, x1 = 0.08	1081.4 ± 1	2.942 ± 0.18
318.15 K, x1 = 0.105	1096.5 ± 1	4.648 ± 0.28
318.15 K, x1 = 0.13	1108 ± 1	6.334 ± 0.38
318.15 K, x1 = 0.16	1118.7 ± 1.1	8.969 ± 0.54
318.15 K, x1 = 0.189	1126.2 ± 1.1	12.07 ± 0.73
318.15 K, x1 = 0.22	1132.8 ± 1.1	15.94 ± 0.97
318.15 K, x1 = 0.253	1138.3 ± 1.2	21.51 ± 1.3
323.15 K, x1 = 0.02	1018.3 ± 1	0.889 ± 0.054
323.15 K, x1 = 0.04	1042.9 ± 1	1.324 ± 0.08
323.15 K, x1 = 0.06	1062 ± 1	1.906 ± 0.12
323.15 K, x1 = 0.08	1077.8 ± 1	2.567 ± 0.15
323.15 K, x1 = 0.105	1092.8 ± 1	3.92 ± 0.24
323.15 K, x1 = 0.13	1104.2 ± 1	5.293 ± 0.32
323.15 K, x1 = 0.16	1115 ± 1.1	7.453 ± 0.45
323.15 K, x1 = 0.189	1122.5 ± 1.1	9.912 ± 0.6
323.15 K, x1 = 0.22	1129.2 ± 1.1	12.97 ± 0.79
323.15 K, x1 = 0.253	1134.7 ± 1.2	17.19 ± 1.1
328.15 K, x1 = 0.02	1015.8 ± 1	0.812 ± 0.049
328.15 K, x1 = 0.04	1039.9 ± 1	1.189 ± 0.072
328.15 K, x1 = 0.06	1059.1 ± 1	1.69 ± 0.1
328.15 K, x1 = 0.08	1074.2 ± 1	2.252 ± 0.14
328.15 K, x1 = 0.105	1089.1 ± 1	3.358 ± 0.2
328.15 K, x1 = 0.13	1100.5 ± 1	4.483 ± 0.27
328.15 K, x1 = 0.16	1111.2 ± 1.1	6.266 ± 0.38
328.15 K, x1 = 0.189	1118.8 ± 1.1	8.29 ± 0.5
328.15 K, x1 = 0.22	1125.6 ± 1.1	10.76 ± 0.65
328.15 K, x1 = 0.253	1131.2 ± 1.2	14.11 ± 0.86
333.15 K, x1 = 0.02	1013.01 ± 1	0.75 ± 0.045
333.15 K, x1 = 0.04	1036.64 ± 1	1.077 ± 0.065
333.15 K, x1 = 0.06	1055.6 ± 1	1.514 ± 0.092
333.15 K, x1 = 0.08	1070.54 ± 1	1.996 ± 0.12
333.15 K, x1 = 0.105	1085.3 ± 1	2.937 ± 0.18
333.15 K, x1 = 0.13	1096.66 ± 1.1	3.847 ± 0.23
333.15 K, x1 = 0.16	1107.44 ± 1.1	5.319 ± 0.32
333.15 K, x1 = 0.189	1115.11 ± 1.1	7.032 ± 0.43
333.15 K, x1 = 0.22	1121.89 ± 1.1	9.062 ± 0.55
333.15 K, x1 = 0.253	1127.56 ± 1.2	11.8 ± 0.72
338.15 K, x1 = 0.02	1010 ± 1	0.7 ± 0.042
338.15 K, x1 = 0.04	1033.3 ± 1	0.999 ± 0.06
338.15 K, x1 = 0.06	1052 ± 1	1.363 ± 0.082
338.15 K, x1 = 0.08	1066.8 ± 1	1.781 ± 0.11
338.15 K, x1 = 0.105	1081.5 ± 1	2.425 ± 0.15
338.15 K, x1 = 0.13	1092.8 ± 1	3.339 ± 0.2
338.15 K, x1 = 0.16	1103.7 ± 1.1	4.555 ± 0.28
338.15 K, x1 = 0.189	1111.4 ± 1.1	5.982 ± 0.36
338.15 K, x1 = 0.22	1118.2 ± 1.1	7.687 ± 0.47
338.15 K, x1 = 0.253	1124 ± 1.2	9.932 ± 0.6
343.15 K, x1 = 0.02	1006.6 ± 1	0.655 ± 0.04
343.15 K, x1 = 0.04	1029.5 ± 1	0.922 ± 0.056
343.15 K, x1 = 0.06	1048.4 ± 1	1.233 ± 0.075
343.15 K, x1 = 0.08	1063.1 ± 1	1.601 ± 0.097
343.15 K, x1 = 0.105	1077.7 ± 1	2.156 ± 0.13
343.15 K, x1 = 0.13	1089 ± 1	2.959 ± 0.18
343.15 K, x1 = 0.16	1099.8 ± 1.1	3.974 ± 0.24
343.15 K, x1 = 0.189	1107.6 ± 1.1	5.163 ± 0.31
343.15 K, x1 = 0.22	1114.6 ± 1.1	6.602 ± 0.4
343.15 K, x1 = 0.253	1120.3 ± 1.2	8.504 ± 0.52
348.15 K, x1 = 0.02	1003.4 ± 1	0.608 ± 0.037
348.15 K, x1 = 0.04	1026.5 ± 1	0.876 ± 0.053
348.15 K, x1 = 0.06	1044.7 ± 1	1.124 ± 0.068
348.15 K, x1 = 0.08	1059.3 ± 1	1.446 ± 0.087
348.15 K, x1 = 0.105	1073.8 ± 1	1.931 ± 0.12
348.15 K, x1 = 0.13	1085.1 ± 1	2.658 ± 0.16
348.15 K, x1 = 0.16	1096 ± 1.1	3.489 ± 0.21
348.15 K, x1 = 0.189	1103.8 ± 1.1	4.485 ± 0.27
348.15 K, x1 = 0.22	1110.8 ± 1.1	5.702 ± 0.35
348.15 K, x1 = 0.253	1116.7 ± 1.2	7.325 ± 0.45
